In data set [1] the test system is TNF-α production. Nature of the data set: LPS-induced TNF-α production in culture of mice peritoneal macrophage (ELISA). The settings on record: for IC50: mouse peritoneal macrophages, at least five concentrations, range tested in parentheses, read-out: TNF-α Inhibition IC50; for inhibition at 10 µM: read-out: TNF-α Inhibition, % inhibition at 10 µM, mouse peritoneal macrophages, 10 µM, vs vehicle (DMSO), n = 3. The class given is cell-based. A general note: In an ELISA, binding on a coated surface is turned into a signal by an enzyme label.
Procedure: BALBc mice were stimulated with thyoglicollate 3% (1 mL/mice; i.p.) and 3 days later the peritoneal cavity were washed with RPMI 1640 and the peritoneal macrophages were plated onto 96-wells plate (30.000 cells/well) for 1 hour at 37°C in an humidified 5% CO2 atmophere. Then, macrophages were incubated with the vehicle or compounds and 1 hour later stimulated with LPS (100 ng/mL) for 24 hour when the supernatants were collected to evaluate TNF-α production by ELISA kit (BD Bioscience).

Data set [2] can be described thus: Cell viability by MTT assay. The class given is cell-based. The conditions noted are these: mouse, murine peritoneal macrophages, vs vehicle (DMSO). The method, then:
The peritoneal macrophage were obtained and plated as described above. The cells were incubated with the vehicle or compounds for 20 hours when was added 20 µl of MTT (3-(4,5-dimethylthiazol-2-yl)-2,5-diphenyltetrazolium bromide) solution (5 mg/mL), followed by 4 hour of incubation. Then, the culture mediums were collected and the precipitates were solubilized in 200 µl of DMSO. The optical density was measured at 490 nm.
Background: Tetrazolium assays rely on reduction of a dye to a coloured formazan, in cell work by metabolically active cells.

Data set [3] concerns the target p38α MAPK (Homo sapiens, UniProt Q16539). Nature of the data set: In vitro p38α MAPK activity inhibition (nonradioactive immunosorbent assay, ref 23). The format is biochemical. The method, then:
Because the novel N-acylhydrazone derivatives 4a–g were designed based on the p38α MAPK inhibitor BIRB-796 (3), they were all evaluated for their in vitro capacity to inhibit p38α MAPK activity at a concentration of 10 µM.
*This assay was performed as described in reference 23.

Data set [4] deals with carrageenan-induced thermal hypernociception. The experiment in a line: Carrageenan-induced thermal hypernociception (modified hot-plate test). The format is in vivo, rat. The settings on record: rats, 100 µmol/kg p.o. Here is the method:
(§1) Wistar rats of both sexes (150–200g) were used. The compounds were administered orally (100 µmol.5mL-1.kg-1) as a suspension in 5% arabic gum in saline (vehicle). Control animals received an equal volume of vehicle. One hour later, the animals were injected with either 0.1 ml of 1% carrageenan solution in saline or sterile saline (NaCl 0.9%), into the subplantar surface of one of the hind paws. The thermal hypernociception was determined using the modified hot-plate test. Rats are placed individually on a hot plate with the temperature adjusted to 51°C. The latency of the withdrawal response of the left hind paw is determined at 0, 30, 60, 120, 180, and 240 min post-challenge. The time of maximum permanence permitted on the hot surface is 20 s. Hypernociception to heat is defined as a decrease in withdrawal latency and calculated as follows: Δ paw withdrawal latency (s) = (left paw withdrawal latency at time 0) – (left paw withdrawal latency at the others times).
(In general: Hot-plate and tail-flick tests time the reaction to a heat stimulus.)

For data set [5], the system named is TNF-α level in carrageenan-injected paws. Nature of the data set: TNF-α level in carrageenan-injected paws (ELISA). The format is in vivo. The conditions noted are these: rat paw, 4 h after carrageenan, 100 µmol/kg p.o. The method, then: as §1
The paw was homogenized 4 h after intraplantar injection of carrageenan, and the level of TNF-α in the supernatant was determined by ELISA.

A short description of data set [6]: Aqueous solubility in phosphate buffer (HPLC-UV). The format is physicochemical. The method, then:
(§2) The organic fraction was analyzed with the Shimadzu Prominence HPLC system (Shimadzu, Tokio, Japan) consisting of a vacuum degasser (DGU-20A5), a binary pump (LC-20AD), a autosampler (SIL-20A), UV/VIS Photodiode Array Detector (SPD-M20A) and fitted with a guard column (CLC G-ODS) and a Shimadzu (CLC-ODS, M) column (250 mm×4.6 mm i.d.) running at room temperature. Isocratic elution was performed with acetonitrile-water (40∶60 v/v), at a flow rate set at 1 mL/min. The mobile phase pH was adjusted to 8.0 with NH4OH solution. The detection was carried out at 285 nm and 330 nm wavelength for compound 4f and 4a, respectively.

A short description of data set [7]: Rat liver microsomal stability. The class given is in vitro ADME. The conditions noted are these: 50 µM, 37 °C, 1 mg/mL protein. Here is the method:
The incubation was conducted at 37°C for 60 min. The experiments contains MgCl2 (1.3 mM), NADP+ (0.4 mM), glucose-6-phosphate (3.5 mM), 0.5 U/mL glucose-6-phosphate dehydrogenase in a phosphate buffer (0.1 M, pH 7.4) containing EDTA (1.5 mM) and the test compounds were added at final concentration of 50 µM with 0.25 mL of final volume. After the pre-warming of the mixture at 37 °C, the microsomal proteins were added to give a final protein concentration of 1 mg/mL. At the end of the incubation time the reaction was stopped by the addition of 375 µL of MeOH and 375 µL of CH3CN. The experiments were performed in duplicate. The samples were centrifuged and filtered for HPLC-UV analysis.
as §2

Data set [8] is described as follows: Rat plasma stability. The class given is in vitro ADME. The settings on record: 50 µM; for % Recovered amount after 60 min, rat plasma: 37 °C. Here is the method: The rat plasma was obtained from blood by centrifugation and diluted in phosphate buffer (pH 7.4). The test compounds were added at final concentration of 50 µM with 0.25 mL of final volume and incubated at 37°C for 60 min under agitation. At the end of the incubation time the reaction was stopped by the addition of 375 µL of MeOH and 375 µL of CH3CN. The experiments were performed in duplicate. The samples were centrifuged and filtered for HPLC-UV analysis.
as §2

Entries after “also recorded” stand apart in the source; their conditions may differ.

Sequence of p38α MAPK (Q16539 whole entry): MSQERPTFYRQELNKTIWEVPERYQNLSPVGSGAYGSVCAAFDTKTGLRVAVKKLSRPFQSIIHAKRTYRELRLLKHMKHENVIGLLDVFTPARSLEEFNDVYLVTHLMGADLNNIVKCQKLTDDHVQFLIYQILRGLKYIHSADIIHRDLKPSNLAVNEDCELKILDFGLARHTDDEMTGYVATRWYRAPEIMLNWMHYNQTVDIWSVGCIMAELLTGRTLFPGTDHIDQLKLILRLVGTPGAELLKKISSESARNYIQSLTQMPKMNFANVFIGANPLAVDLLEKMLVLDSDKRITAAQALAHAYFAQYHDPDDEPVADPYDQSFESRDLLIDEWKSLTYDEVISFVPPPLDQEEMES

Consider `CC(C)(C)c1cc(NCC(=O)N/N=C/c2ccc(OCCN3CCOCC3)c3ccccc23)n(-c2ccccc2)n1` [Compound 4a, (E)-2-(3-tert-butyl-1-phenyl-1H-pyrazol-5-ylamino)-N’-((4-(2-morpholinoethoxy)naphthalen-1-yl)methylene)acetohydrazide], for which the melting point worked out at 180 °C. For the same molecule, in [1], the half-maximal inhibitory concentration (IC50) is 3.6 µM and the inhibition at 10 µM is 96.9%. In data set [2], this molecule registered a viability at 20 h, 3 µM of 100% and a viability at 20 h, 10 µM of 61.5%. Besides, in data set [3], the inhibition at 10 µM is -5.35%. Also, the “Anti-hypernociceptive effect (in words)” value in data set [4] was “comparable to SB-203580; also recorded: completely inhibit the hypernociceptive response”. The “Suppression of the elevation of tissue TNF-α level” value in [5] worked out at 57.3%. Besides, in data set [6] (pH 6.4 compared with pH 7.4), the “Improvement in aqueous solubility at pH 6.4 (versus pH 7.4)” value is “ca. three”. The “Improvement in solubility of 4a compared with 4f at pH 6.4” value in data set [6] (phosphate buffer pH 6.4, 37 °C, 24 h) is on record as “ca. 12 times”. Besides, the “Improvement in solubility of 4a compared with 4f at pH 7.4” value in data set [6] (phosphate buffer pH 7.4, 37 °C, 24 h) is on record as “ca. 5 times”. For the same molecule, the “% Recovered amount after 60 min, rat liver microsomes” value in data set [7] came to 90.1%. Moreover, in [8], the “% Recovered amount after 60 min, rat plasma” value is given as 40.7%. For the same molecule, the “Resistance to plasma degradation relative to 4f” value in data set [8] (rat plasma, 60 min) is reported as “about four”.

`CC(C)(C)c1cc(NCC(=O)N/N=C/c2ccc(O)c3ccccc23)n(-c2ccccc2)n1` [Compound 4b, (E)-2-(3-tert-butyl-1-phenyl-1H-pyrazol-5-ylamino)-N’-((4-hydroxynaphthalen-1-yl)methylene)acetohydrazide]: the melting point came to 270 °C. Moreover, in data set [1], the half-inhibitory concentration (IC50) stood at 4.3 µM and the inhibition at 10 µM was 75.4%. In data set [2], this molecule returned a viability at 20 h, 3 µM of 100% and a viability at 20 h, 10 µM of 100%. Also, in data set [3], the inhibition at 10 µM is about 30%.

In the case of `CC(C)(C)c1cc(NCC(=O)N/N=C/c2cccc3ccccc23)n(-c2ccccc2)n1` [Compound 4c, (E)-2-(3-tert-butyl-1-phenyl-1H-pyrazol-5-ylamino)-N’-(naphthalen-1-ylmethylene)acetohydrazide], the melting point is 140 °C. Further, in data set [1], the concentration for half-maximal inhibition (IC50) is 5.5 µM and the inhibition at 10 µM amounted to 61.2%. Besides, in data set [2], the viability at 20 h, 3 µM came to 100% and the viability at 20 h, 10 µM worked out at 90.4%. Moreover, in [3], the inhibition at 10 µM was found to be 19.7%.

`CC(C)(C)c1cc(NCC(=O)N/N=C/c2ccc(OCCN3CCOCC3)cc2)n(-c2ccccc2)n1` [Compound 4d, (E)-2-(3-tert-butyl-1-phenyl-1H-pyrazol-5-ylamino)-N’-(4-(2-morpholinoethoxy)benzylidene)acetohydrazide] registered a melting point of 158 °C. Besides, the inhibition at 10 µM in data set [1] is 52.5%. In [2], this molecule returned a viability at 20 h, 3 µM of 100% and a viability at 20 h, 10 µM of 100%. In addition, the inhibition at 10 µM in data set [3] is 16.4%.

Consider `CC(C)(C)c1cc(NCC(=O)N/N=C/c2ccc(O)cc2)n(-c2ccccc2)n1` [Compound 4e, (E)-2-(3-tert-butyl-1-phenyl-1H-pyrazol-5-ylamino)-N’-(4-hydroxybenzylidene)acetohydrazide], for which the inhibition at 10 µM in [1] is 8.1%; in [3], about 30%. The molecule further gave a viability at 20 h, 3 µM in data set [2] of 100%. The viability at 20 h, 10 µM in data set [2] was found to be 97.8%.

In the case of `CC(C)(C)c1cc(NCC(=O)N/N=C/c2ccc(Cl)cc2)n(-c2ccccc2)n1` [Compound 4f, (E)-2-(3-tert-butyl-1-phenyl-1H-pyrazol-5-ylamino)-N’-(4-chlorobenzylidene)acetohydrazide], in data set [1], the IC50 is 1.6 µM and the inhibition at 10 µM was found to be 93.2%. Besides, in [2], the viability at 20 h, 3 µM turned out to be 100% and the viability at 20 h, 10 µM came out at 46.6%. For the same molecule, the inhibition at 10 µM in data set [3] amounted to 15.3%. For the same molecule, in [4], the “Anti-hypernociceptive effect (in words)” value was “comparable to SB-203580; also recorded: partially inhibit this response”. Further, in data set [5], the “Suppression of the elevation of tissue TNF-α level” value was 55.8%. Further, the “% Recovered amount after 60 min, rat liver microsomes” value in [7] amounted to 86.7%. Besides, the “% Recovered amount after 60 min, rat plasma” value in data set [8] stood at 13.3%.

With `CC(C)(C)c1cc(NCC(=O)N/N=C/c2ccccc2)n(-c2ccccc2)n1` [Compound 4g, (E)-N’-benzylidene-2-(3-tert-butyl-1-phenyl-1H-pyrazol-5-ylamino)acetohydrazide], the inhibition at 10 µM in data set [1] worked out at 50.4%. For the same molecule, in data set [2], the viability at 20 h, 3 µM worked out at 100% and the viability at 20 h, 10 µM turned out to be 99.8%. Also, in [3], the inhibition at 10 µM was found to be 19.5%.

The molecule `CC(C)=NNC(=O)CNc1cc(C(C)(C)C)nn1-c1ccccc1` [Compound 9, 2-(3-tert-butyl-1-phenyl-1H-pyrazol-5-ylamino)-N’-(propan-2-ylidene)acetohydrazide] had a melting point of 181 to 183 °C.

`CN(CC(=O)N/N=C/c1ccccc1)c1cc(C(C)(C)C)nn1-c1ccccc1` [Compound 15, (E)-N’-benzylidene-2-((3-tert-butyl-1-phenyl-1H-pyrazol-5-yl)(methyl)amino)acetohydrazide] showed a melting point of 156 to 158 °C.

With `C[S+]([O-])c1ccc(-c2nc(-c3ccncc3)c(-c3ccc(F)cc3)[nH]2)cc1` (centres unmarked) [SB-203580 (1), SB-203580, reference compound], the inhibition at 10 µM in data set [1] came out at 90%. For the same molecule, in data set [2], the viability at 20 h, 3 µM is 100% and the viability at 20 h, 10 µM worked out at 44.3%.

A word on the IC50: it is the midpoint of a concentration-inhibition curve. A word on the inhibition: it is the change of the read-out against control, counted positive when it falls. The term viability denotes the share of living cells, or the viability signal relative to a control. Broadly, the melting point is the temperature, or range, at which the solid turns liquid.

The record behind these values is PMC3466213, “Discovery of Novel Orally Active Anti-Inflammatory N-Phenylpyrazolyl-N-Glycinyl-Hydrazone Derivatives That Inhibit TNF-α Production” (PLoS ONE, 2012).
